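Cells were grown in 96-well plates and exposed to each compound for 48 hours at five concentrations; endpoints were interpolated linearly between bracketing concentrations, or set to the highest concentration if not reached. TGI marks complete inhibition of growth.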
Columns and labels:
Assay in all cases: DTP human tumour cell line panel, 48 h
ACHN renal = tested on: ACHN renal
PC-3 prostate = tested on: PC-3 prostate
NCI-H23 lung = tested on: NCI-H23 lung
KM12 colon = tested on: KM12 colon
HOP-92 NSCLC = tested on: HOP-92 NSCLC
UACC-62 melanoma = tested on: UACC-62 melanoma
HCT-116 colon = tested on: HCT-116 colon
EKVX NSCLC = tested on: EKVX NSCLC
SF-539 CNS = tested on: SF-539 CNS
COLO 205 colon = tested on: COLO 205 colon
CAKI-1 renal = tested on: CAKI-1 renal
MDA-MB-435 = tested on: MDA-MB-435
NCI-H522 lung = tested on: NCI-H522 lung
BT-549 breast = tested on: BT-549 breast
NCI-H226 lung = tested on: NCI-H226 lung
CCRF-CEM leukemia = tested on: CCRF-CEM leukemia
SNB-19 CNS = tested on: SNB-19 CNS
RPMI-8226 leukemia = tested on: RPMI-8226 leukemia
OVCAR-3 ovarian = tested on: OVCAR-3 ovarian
HOP-62 NSCLC = tested on: HOP-62 NSCLC
A549 NSCLC = tested on: A549 NSCLC
SK-MEL-28 melanoma = tested on: SK-MEL-28 melanoma
OVCAR-8 ovarian = tested on: OVCAR-8 ovarian
K-562 leukemia = tested on: K-562 leukemia
MALME-3M melanoma = tested on: MALME-3M melanoma
M14 melanoma = tested on: M14 melanoma
MDA-N = tested on: MDA-N
SF-295 CNS = tested on: SF-295 CNS
MCF7 breast = tested on: MCF7 breast
TK-10 renal = tested on: TK-10 renal
OVCAR-5 ovarian = tested on: OVCAR-5 ovarian
SF-268 CNS = tested on: SF-268 CNS
SK-OV-3 ovarian = tested on: SK-OV-3 ovarian
U251 CNS = tested on: U251 CNS
OVCAR-4 ovarian = tested on: OVCAR-4 ovarian
HT29 colon = tested on: HT29 colon
SNB-75 CNS = tested on: SNB-75 CNS
A498 renal = tested on: A498 renal
HCC-2998 colon = tested on: HCC-2998 colon
786-0 renal = tested on: 786-0 renal
LOX IMVI melanoma = tested on: LOX IMVI melanoma
HCT-15 colon = tested on: HCT-15 colon
MDA-MB-231 breast = tested on: MDA-MB-231 breast
RXF 393 renal = tested on: RXF 393 renal
SR leukemia = tested on: SR leukemia
NCI/ADR-RES ovarian = tested on: NCI/ADR-RES ovarian
HL-60(TB) leukemia = tested on: HL-60(TB) leukemia
UACC-257 melanoma = tested on: UACC-257 melanoma
SN12C renal = tested on: SN12C renal
IGROV1 ovarian = tested on: IGROV1 ovarian
DU-145 prostate = tested on: DU-145 prostate
UO-31 renal = tested on: UO-31 renal
SW-620 colon = tested on: SW-620 colon
NCI-H460 lung = tested on: NCI-H460 lung
T-47D breast = tested on: T-47D breast
SK-MEL-2 melanoma = tested on: SK-MEL-2 melanoma
HS 578T breast = tested on: HS 578T breast
MOLT-4 leukemia = tested on: MOLT-4 leukemia
SK-MEL-5 melanoma = tested on: SK-MEL-5 melanoma

## CCOC(=O)/C=C(\C(=O)OCC)n1cnc2c(N)ncnc21
ACHN renal
  TGI: 18.5 µM
PC-3 prostate
  TGI: 26.1 µM
NCI-H23 lung
  TGI: 31.8 µM
KM12 colon
  TGI: 30.5 µM
HOP-92 NSCLC
  TGI: 7.12 µM
UACC-62 melanoma
  TGI: 23.8 µM
HCT-116 colon
  TGI: 12.3 µM
EKVX NSCLC
  TGI: 30.7 µM
SF-539 CNS
  TGI: 29.3 µM
COLO 205 colon
  TGI: 4.6 µM
CAKI-1 renal
  TGI: 2.86 µM
MDA-MB-435
  TGI: 24.7 µM
NCI-H522 lung
  TGI: 6.09 µM
BT-549 breast
  TGI: 27.3 µM
NCI-H226 lung
  TGI: 13 µM
CCRF-CEM leukemia
  TGI: 4.51 µM
SNB-19 CNS
  TGI: 30 µM
RPMI-8226 leukemia
  TGI: 5.4 µM
OVCAR-3 ovarian
  TGI: 21.4 µM
HOP-62 NSCLC
  TGI: 39.8 µM
A549 NSCLC
  TGI: 32.2 µM
SK-MEL-28 melanoma
  TGI: 27.8 µM
OVCAR-8 ovarian
  TGI: 18.1 µM
K-562 leukemia
  TGI: 5.52 µM
MALME-3M melanoma
  TGI: 15.8 µM
M14 melanoma
  TGI: 22.7 µM
MDA-N
  TGI: 29.3 µM
SF-295 CNS
  TGI: 32.1 µM
MCF7 breast
  TGI: 11.9 µM
TK-10 renal
  TGI: 17.3 µM
OVCAR-5 ovarian
  TGI: 14 µM
SF-268 CNS
  TGI: 37.6 µM
SK-OV-3 ovarian
  TGI: 32 µM
U251 CNS
  TGI: 20.8 µM
OVCAR-4 ovarian
  TGI: > 48.7 µM
HT29 colon
  TGI: 23.1 µM
SNB-75 CNS
  TGI: 26 µM
A498 renal
  TGI: 17.7 µM
HCC-2998 colon
  TGI: 30.2 µM
786-0 renal
  TGI: 10.2 µM
LOX IMVI melanoma
  TGI: 11.9 µM
HCT-15 colon
  TGI: 12.2 µM
MDA-MB-231 breast
  TGI: 21.8 µM
RXF 393 renal
  TGI: 26.4 µM
SR leukemia
  TGI: 4.25 µM
NCI/ADR-RES ovarian
  TGI: 37 µM
HL-60(TB) leukemia
  TGI: 2.78 µM
UACC-257 melanoma
  TGI: 27.8 µM
SN12C renal
  TGI: 10.8 µM
IGROV1 ovarian
  TGI: 26.7 µM
DU-145 prostate
  TGI: 29.1 µM
UO-31 renal
  TGI: 30 µM
SW-620 colon
  TGI: 8.49 µM
NCI-H460 lung
  TGI: 38.7 µM
T-47D breast
  TGI: 14 µM
SK-MEL-2 melanoma
  TGI: 30.7 µM
HS 578T breast
  TGI: 51.5 µM
MOLT-4 leukemia
  TGI: 6.89 µM
SK-MEL-5 melanoma
  TGI: 28.6 µM

## COc1ccc(N2CCN(Cc3c(C(C)=O)[n+](=O)c4ccccc4n3[O-])CC2)cc1
ACHN renal
  TGI: > 100 µM
PC-3 prostate
  TGI: > 100 µM
NCI-H23 lung
  TGI: > 100 µM
KM12 colon
  TGI: > 100 µM
HOP-92 NSCLC
  TGI: > 100 µM
UACC-62 melanoma
  TGI: > 100 µM
HCT-116 colon
  TGI: > 100 µM
EKVX NSCLC
  TGI: > 100 µM
COLO 205 colon
  TGI: > 100 µM
CAKI-1 renal
  TGI: > 100 µM
MDA-MB-435
  TGI: > 100 µM
NCI-H522 lung
  TGI: > 100 µM
BT-549 breast
  TGI: 53.3 µM
NCI-H226 lung
  TGI: > 100 µM
CCRF-CEM leukemia
  TGI: > 100 µM
SNB-19 CNS
  TGI: > 100 µM
RPMI-8226 leukemia
  TGI: > 100 µM
OVCAR-3 ovarian
  TGI: > 100 µM
HOP-62 NSCLC
  TGI: > 100 µM
A549 NSCLC
  TGI: > 100 µM
SK-MEL-28 melanoma
  TGI: > 100 µM
OVCAR-8 ovarian
  TGI: > 100 µM
K-562 leukemia
  TGI: > 100 µM
MALME-3M melanoma
  TGI: 60.6 µM
M14 melanoma
  TGI: > 100 µM
MDA-N
  TGI: > 100 µM
SF-295 CNS
  TGI: > 100 µM
MCF7 breast
  TGI: > 100 µM
TK-10 renal
  TGI: 67.5 µM
OVCAR-5 ovarian
  TGI: > 100 µM
SF-268 CNS
  TGI: > 100 µM
SK-OV-3 ovarian
  TGI: > 100 µM
U251 CNS
  TGI: > 100 µM
OVCAR-4 ovarian
  TGI: > 100 µM
HT29 colon
  TGI: > 100 µM
SNB-75 CNS
  TGI: > 100 µM
A498 renal
  TGI: > 100 µM
HCC-2998 colon
  TGI: > 100 µM
786-0 renal
  TGI: > 100 µM
LOX IMVI melanoma
  TGI: > 100 µM
HCT-15 colon
  TGI: > 100 µM
MDA-MB-231 breast
  TGI: > 100 µM
RXF 393 renal
  TGI: 83.4 µM
SR leukemia
  TGI: > 100 µM
NCI/ADR-RES ovarian
  TGI: > 100 µM
HL-60(TB) leukemia
  TGI: > 100 µM
UACC-257 melanoma
  TGI: > 100 µM
SN12C renal
  TGI: > 100 µM
IGROV1 ovarian
  TGI: > 100 µM
DU-145 prostate
  TGI: > 100 µM
UO-31 renal
  TGI: > 100 µM
SW-620 colon
  TGI: > 100 µM
NCI-H460 lung
  TGI: > 100 µM
T-47D breast
  TGI: > 100 µM
SK-MEL-2 melanoma
  TGI: > 100 µM
HS 578T breast
  TGI: > 100 µM
SK-MEL-5 melanoma
  TGI: > 100 µM

## c1ccc2c(c1)CCN1CCc3c([nH]c4ccccc34)C21 (stereo not given)
ACHN renal
  TGI: > 100 µM
PC-3 prostate
  TGI: 98.5 µM
NCI-H23 lung
  TGI: > 100 µM
KM12 colon
  TGI: > 100 µM
HOP-92 NSCLC
  TGI: 72.2 µM
UACC-62 melanoma
  TGI: > 100 µM
HCT-116 colon
  TGI: 76.5 µM
EKVX NSCLC
  TGI: 82.1 µM
SF-539 CNS
  TGI: > 100 µM
COLO 205 colon
  TGI: 37.8 µM
CAKI-1 renal
  TGI: > 100 µM
MDA-MB-435
  TGI: 75.5 µM
NCI-H522 lung
  TGI: 66 µM
BT-549 breast
  TGI: > 100 µM
NCI-H226 lung
  TGI: 97.5 µM
CCRF-CEM leukemia
  TGI: 95.5 µM
SNB-19 CNS
  TGI: > 100 µM
RPMI-8226 leukemia
  TGI: 55.1 µM
OVCAR-3 ovarian
  TGI: 66.7 µM
HOP-62 NSCLC
  TGI: > 100 µM
A549 NSCLC
  TGI: > 100 µM
SK-MEL-28 melanoma
  TGI: 48.8 µM
OVCAR-8 ovarian
  TGI: > 100 µM
K-562 leukemia
  TGI: 43.3 µM
MALME-3M melanoma
  TGI: 38.3 µM
M14 melanoma
  TGI: 34 µM
MDA-N
  TGI: 73.8 µM
SF-295 CNS
  TGI: 57.4 µM
MCF7 breast
  TGI: > 100 µM
TK-10 renal
  TGI: > 100 µM
OVCAR-5 ovarian
  TGI: > 100 µM
SF-268 CNS
  TGI: > 100 µM
SK-OV-3 ovarian
  TGI: > 100 µM
U251 CNS
  TGI: > 100 µM
OVCAR-4 ovarian
  TGI: > 100 µM
HT29 colon
  TGI: 99.3 µM
SNB-75 CNS
  TGI: 79 µM
A498 renal
  TGI: 54.5 µM
HCC-2998 colon
  TGI: 34 µM
786-0 renal
  TGI: > 100 µM
LOX IMVI melanoma
  TGI: 53.1 µM
HCT-15 colon
  TGI: > 100 µM
MDA-MB-231 breast
  TGI: > 100 µM
RXF 393 renal
  TGI: 72.3 µM
SR leukemia
  TGI: 56.3 µM
NCI/ADR-RES ovarian
  TGI: 56.9 µM
HL-60(TB) leukemia
  TGI: 34.3 µM
UACC-257 melanoma
  TGI: 91.6 µM
SN12C renal
  TGI: > 100 µM
IGROV1 ovarian
  TGI: > 100 µM
DU-145 prostate
  TGI: > 100 µM
UO-31 renal
  TGI: > 100 µM
SW-620 colon
  TGI: > 100 µM
NCI-H460 lung
  TGI: > 100 µM
T-47D breast
  TGI: > 100 µM
SK-MEL-2 melanoma
  TGI: 57.1 µM
HS 578T breast
  TGI: > 100 µM
MOLT-4 leukemia
  TGI: 70.6 µM
SK-MEL-5 melanoma
  TGI: 29.7 µM

From PubChem BioAssay (NCI)
